Data from patent US9441000B2, “Use of metallocene compounds for cancer treatment” (Chevron Phillips Chemical Company LP, priority 2011, dated 2016).

Tests used:
Format in all cases: cell-based
[1] = test system: A253 (head and neck tumor) cell line; assay: Sulforhodamine-B (SRB) microculture colorimetric cytotoxicity assay, A253; details: 96 hr treatment, A253 head and neck tumor cells, read-out: IC50 ± SD, A253
Experimental: (§1) Drug solutions of CPH-1, CPH-2 and CPH-3 were made in dimethyl sulfoxide (DMSO, Sigma Aldrich) at a concentration of 20 mM, filtered through a Millipore filter, 0.22 μm, before use, and diluted by nutrient medium to various working concentrations. The nutrient medium was RPMI-1640 (PAA Laboratories) supplemented with 10% fetal bovine serum (Biochrom AG) and penicillin/streptomycin (PAA Laboratories). […]
(§2) The cytotoxic activities of CPH-1, CPH-2 and CPH-3 were evaluated using a sulforhodamine-B (SRB, Sigma Aldrich) microculture colorimetric assay, as described in Skehan et al., J. Natl. Cancer I. 82 (1990) 1107-1112, the disclosure of which is incorporated herein by reference in its entirety. […] The percentages of surviving cells relative to untreated controls were determined 96 hr after the beginning of drug exposure. […] After dyeing, the plates were again washed to remove the dye with 1% acetic acid and allowed to air dry overnight, 100 μL of 10 mM Tris base solutions were added to each well of the plate, and absorbance was measured at 570 nm using a 96 well plate reader (Tecan Spectra, Crailsheim, Germany). […]

[2] = test system: A549 (lung carcinoma) cell line; assay: Sulforhodamine-B (SRB) microculture colorimetric cytotoxicity assay, A549; details: 96 hr treatment, A549 lung carcinoma cells, read-out: IC50 ± SD, A549
Experimental: as §1, §2

[3] = test system: A2780 (ovarian cancer) cell line; assay: Sulforhodamine-B (SRB) microculture colorimetric cytotoxicity assay, A2780; details: 96 hr treatment, A2780 ovarian cancer cells, read-out: IC50 ± SD, A2780
Experimental: as §1, §2

[4] = test system: A549 lung carcinoma cell line; assay: CellTiter-Blue viability assay, A549 (Examples 18-22); details: 96 hr treatment, approximately 5,000 A549 cells per well
Experimental: (§3) Examples 18-22 were prepared and tested as follows. Approximately 5,000 A549 cells (University of Texas M.D. Anderson Cancer Center) growing in RPMI 1640 were plated in each 96-well overnight before adding the test compounds for 96 hr of treatment. Final concentrations achieved in the wells were 0, 0.8, 1.6, 3.1, 6.2, 12.5, 25, 50, 100, and 200 μM. All of the test compounds were reconstituted in DMSO just before the treatment. […] After 96 hr, the medium was refreshed. Approximately 10 μL of CellTiter-Blue® (Promega) was added to 100 μL of medium in each well and incubated at 37° C. for >4 hours. The plates were scanned using a SpectraMax M2 model microplate reader to measure the absorbance. CellTiter-Blue contains dark blue resazurin. Viable cells are able to convert non-fluorescent resazurin to its fluorescent product, resorufin. […] Reduction of resazurin to resorufin also involves a shift of the absorbance maximum from 605 nm to 573 nm, so viability can also be estimated using absorbance. Results were normalized to untreated controls to determine the percent reduction in viability. Graphs were generated using GraphPad Prism (GraphPad Software, Inc).

[5] = test system: A2780 ovarian cancer cells; assay: CellTiter-Blue viability assay, A2780, approximately 2,000 cells (Examples 23-27); details: 96 hr treatment, approximately 2,000 A2780 cells
Experimental: as §3
Examples 23-27 were prepared and tested using substantially the same procedure as described in Examples 18-22, except that approximately 2,000 A2780 ovarian cancer cells (University of Texas M.D. Anderson Cancer Center) were used. […]

[6] = test system: SKOV-3 chemoresistant ovarian cancer cells; assay: CellTiter-Blue viability assay, SKOV-3; details: 96 hr treatment, approximately 5,000 SKOV-3 cells
Experimental: as §3
Examples 34-37 were prepared and tested using substantially the same procedure as described in Examples 18-22, except that approximately 5,000 SKOV-3 ovarian cancer cells (American Type Culture Collection) were used. […]

[7] = test system: T-24 chemoresistant urinary bladder cancer cells; assay: CellTiter-Blue viability assay, T-24; details: 96 hr treatment, approximately 5,000 T-24 cells
Experimental: as §3
Examples 46-49 were prepared and tested using substantially the same procedure as described in Examples 18-22, except that approximately 5,000 T-24 urinary bladder cancer cells (American Type Culture Collection) were used. […]

[8] = test system: MeWo chemoresistant melanoma cancer cells; assay: CellTiter-Blue viability assay, MeWo; details: Homo sapiens, 96 hr treatment, approximately 5,000 MeWo cells
Experimental: as §3
Examples 50-53 were prepared and tested using substantially the same procedure as described in Examples 18-22, except that approximately 5,000 MeWo melanoma cancer cells (University of Texas M.D. Anderson Cancer Center) were used. […]

[9] = test system: NCI-Adr-Res chemoresistant ovarian cancer cells; assay: CellTiter-Blue viability assay, NCI-Adr-Res; details: Homo sapiens, 96 hr treatment, approximately 5,000 NCI-Adr-Res cells
Experimental: as §3
Examples 42-45 were prepared and tested using substantially the same procedure as described in Examples 18-22, except that approximately 5,000 NCI-Adr-Res ovarian cancer cells (National Cancer Institute) were used. […]

[10] = test system: Hey-A8 MDR chemoresistant ovarian cancer cells; assay: CellTiter-Blue viability assay, Hey-A8 MDR; details: HeyA8-MDR, 96 hr treatment, approximately 5,000 Hey-A8 MDR cells
Experimental: as §3
Examples 38-41 were prepared and tested using substantially the same procedure as described in Examples 18-22, except that approximately 5,000 Hey-A8 MDR ovarian cancer cells (University of Texas M.D. Anderson Cancer Center) were used. […]

Structure (SMILES): N.N.[Cl][Pt][Cl] [Cisplatin, cisplatin, reference compound]
- IC50 [1]: 0.81 ± 0.02 µM
- IC50 [2]: 1.51 ± 0.02 µM
- IC50 [3]: 0.55 ± 0.03 µM
- IC50 [4]: 82.7 µM
- IC50 [5]: 35.4 µM
- IC50 [6]: 12.8 µM
- IC50 [7]: > 200 µM

Structure (SMILES): CN(C)/N=N/c1[nH]cnc1C(N)=O [Dacarbazine, dacarbazine, reference compound]
- IC50 [8]: 7.9 µM

Structure (SMILES): COc1cccc2c1C(=O)c1c(O)c3c(c(O)c1C2=O)C[C@@](O)(C(=O)CO)C[C@@H]3O[C@H]1C[C@H](N)[C@H](O)[C@H](C)O1 [Doxorubicin, doxorubicin, reference compound]
- IC50 [9]: 14.3 µM

Structure (SMILES): CC(=O)O[C@H]1C(=O)[C@@]2(C)[C@H]([C@H](OC(=O)c3ccccc3)[C@]3(O)C[C@H](OC(=O)[C@H](O)[C@@H](NC(=O)c4ccccc4)c4ccccc4)C(C)=C1C3(C)C)[C@]1(OC(C)=O)CO[C@@H]1C[C@@H]2O [Paclitaxel, paclitaxel, reference compound]
- IC50 [10]: 0.03 µM
